From PubChem BioAssay (NCI) come the findings set out here.

SMILES strings stand for the structures.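 Step 1: Grow cells in 96-well plates. Step 2: Expose to compound for 48 hours at 5 concentrations. Step 3: Interpolate endpoints linearly; if unreached, use highest concentration. The concentration for 50% growth inhibition is given as GI50. Definition used: TGI = concentration required for complete inhibition of growth.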

Some test systems named below: CAKI-1 renal; HOP-92 NSCLC; MALME-3M melanoma; M14 melanoma; HL-60(TB) leukemia; A549 NSCLC; 786-0 renal; SN12C renal; OVCAR-3 ovarian; HT29 colon.
What all share (test): NCI-60 cell line screen, 48 h

As for `CC1=C2C(c3ccccc3)(c3ccccc3)C3C=CC2(C=N3)N(C(=O)NC2CCCCC2)C1=O` (centres undefined), the TGI in the assay with CAKI-1 renal is 26.1 µM; in the assay with HOP-92 NSCLC, 27.4 µM; in the assay on MALME-3M melanoma, 31.6 µM; in the assay with M14 melanoma it was 31.2 µM; with HL-60(TB) leukemia, 30.2 µM; in the assay with A549 NSCLC, 32.8 µM. The TGI was determined as 29.4 µM in the assay on 786-0 renal, 31.7 µM in the assay on SN12C renal and 28.2 µM in the assay on OVCAR-3 ovarian.
On to `C/C(=N\Nc1ccc([N+](=O)[O-])cc1)C(=O)N(C)Nc1ccccc1`, for which the TGI in the assay on HT29 colon, with HOP-92 NSCLC, in the assay on M14 melanoma, in the assay with HL-60(TB) leukemia, in the assay with A549 NSCLC and in the assay with 786-0 renal was > 100 µM throughout. Further, the TGI with SN12C renal and in the assay on OVCAR-3 ovarian was > 100 µM each time.
For the molecule `Cc1ccc(NC(=O)C(=O)Cc2nc3ccccc3o2)c(C)c1`, the TGI with CAKI-1 renal, in the assay with HT29 colon, in the assay on HOP-92 NSCLC, in the assay on MALME-3M melanoma, in the assay on M14 melanoma and in the assay on A549 NSCLC was > 100 µM each time. The TGI in the assay on 786-0 renal, with SN12C renal and with OVCAR-3 ovarian was > 100 µM each time.
Take `FC(F)(F)c1ccc(-c2cnc(Br)nc2NC2CCCCCC2)cc1`: the GI50 in the assay with CAKI-1 renal is 92.9 µM; in the assay with HT29 colon it was 71.4 µM; in the assay with MALME-3M melanoma, > 100 µM; in the assay with M14 melanoma it was > 100 µM; in the assay on HL-60(TB) leukemia, 31.4 µM; in the assay with A549 NSCLC it was 86.5 µM. Besides, the GI50 is 91.2 µM in the assay on 786-0 renal, > 100 µM with SN12C renal and 70.8 µM with OVCAR-3 ovarian. The TGI with CAKI-1 renal, with HT29 colon, with MALME-3M melanoma, with M14 melanoma, with HL-60(TB) leukemia and with A549 NSCLC was > 100 µM each time. Further, the TGI in the assay on 786-0 renal, in the assay on SN12C renal and in the assay with OVCAR-3 ovarian was > 100 µM throughout.
As to `CCN(CC)CCCNC(=O)Cc1ccccc1Nc1c(Cl)cccc1Cl`, the TGI was found to be 17.6 µM in the assay on HT29 colon; 7.88 µM with M14 melanoma; 27.5 µM in the assay on HL-60(TB) leukemia; 36.2 µM with A549 NSCLC; 21.8 µM in the assay with 786-0 renal; 28.5 µM in the assay on SN12C renal. Also, the TGI with OVCAR-3 ovarian was found to be 31.5 µM.
For the molecule `O=[N+]([O-])c1ccccc1C1N2CCCCC2[C@@H]2c3[nH]c4ccccc4c3CCN12` (some centres undefined), the TGI in the assay on CAKI-1 renal was determined as 29.9 µM; in the assay on HT29 colon it was 20.8 µM; in the assay with HOP-92 NSCLC, 29.2 µM; with M14 melanoma it was 26.7 µM; with HL-60(TB) leukemia it was 16.8 µM; in the assay with A549 NSCLC, 35.8 µM. The TGI in the assay with 786-0 renal is 29.7 µM; with SN12C renal, 26.6 µM; with OVCAR-3 ovarian, 63.3 µM.
For the molecule `Cc1cc(C)c(C(=O)OC(c2ccccc2)C(c2ccccc2)N2CCOCC2)c(C)c1` (centres undefined), the TGI in the assay on CAKI-1 renal, in the assay with HT29 colon, in the assay with MALME-3M melanoma, with M14 melanoma, with HL-60(TB) leukemia and in the assay on A549 NSCLC was > 100 µM each time. Moreover, the TGI in the assay on 786-0 renal, in the assay with SN12C renal and in the assay on OVCAR-3 ovarian was > 100 µM throughout.
Turning to `CC(C)(C)CC(C)(C)c1ccc(OCCOCCSC(=N)N)cc1`, the GI50 was 2.28 µM in the assay on CAKI-1 renal; 1.78 µM with HT29 colon; 1.89 µM with HOP-92 NSCLC; 1.8 µM in the assay on M14 melanoma; 1.79 µM in the assay on HL-60(TB) leukemia; 2.65 µM in the assay on A549 NSCLC. The GI50 in the assay on 786-0 renal was 1.71 µM; in the assay with SN12C renal, 1.81 µM; in the assay with OVCAR-3 ovarian, 2.05 µM. Further, the TGI in the assay on CAKI-1 renal was determined as 5.87 µM; in the assay with HT29 colon it was 3.42 µM; in the assay on HOP-92 NSCLC, 7.92 µM; in the assay with M14 melanoma it was 3.39 µM; in the assay with HL-60(TB) leukemia, 3.58 µM; in the assay on A549 NSCLC, 8.77 µM. The TGI was found to be 3.46 µM in the assay with 786-0 renal, 3.62 µM in the assay on SN12C renal and 4.48 µM in the assay on OVCAR-3 ovarian.
For `Fc1ccc(-c2ncn(C3CCNCC3)c2-c2ccnc(Oc3cccc(F)c3)n2)cc1`, the GI50 is 17.9 µM in the assay on CAKI-1 renal; 4.5 µM in the assay on HT29 colon; 6.71 µM in the assay on MALME-3M melanoma; 5.26 µM in the assay on M14 melanoma; > 16.6 µM in the assay with HL-60(TB) leukemia; 24.7 µM in the assay with A549 NSCLC. Besides, the GI50 in the assay with 786-0 renal was > 23.5 µM; in the assay with SN12C renal, 19.1 µM; in the assay with OVCAR-3 ovarian, > 20.9 µM. Also, the TGI in the assay with CAKI-1 renal is > 25 µM; with HT29 colon it was 8.6 µM; with MALME-3M melanoma, 16.8 µM; with M14 melanoma, 10.5 µM; in the assay on HL-60(TB) leukemia it was > 25 µM; with A549 NSCLC, > 25 µM. Also, the TGI in the assay on 786-0 renal, in the assay on SN12C renal and in the assay on OVCAR-3 ovarian was > 25 µM in each case.
Turning to `CC(=O)OC1CCC2(C)C(=CC(C3C=C4CC(OC(C)=O)CCC4(C)C4=C3C3CC5OC6(CCC(C)CO6)C(C)C5C3(C)CC4)C3=C2CCC2(C)C3CC3OC4(CCC(C)CO4)C(C)C32)C1` (centres undefined), the TGI was found to be 32.1 µM in the assay on CAKI-1 renal; 27.2 µM with HT29 colon; 27.1 µM with HOP-92 NSCLC; 26.4 µM in the assay on MALME-3M melanoma; 26.9 µM with M14 melanoma; 26.5 µM in the assay with A549 NSCLC. For the same molecule, the figures for the TGI in the assay with 786-0 renal, with SN12C renal and in the assay on OVCAR-3 ovarian were 29.6 µM, 31.9 µM and 28.6 µM, respectively.
In the case of `CCCCCCCCCC(=O)CC(=O)c1c(O)cccc1O`, the TGI was > 100 µM in the assay on CAKI-1 renal; 65.8 µM with HT29 colon; 74.4 µM with MALME-3M melanoma; 72.1 µM with M14 melanoma; 45.3 µM in the assay with HL-60(TB) leukemia; 96.1 µM with A549 NSCLC. For the same molecule, the TGI with 786-0 renal turned out to be 35.3 µM; in the assay with SN12C renal, 53.4 µM; in the assay with OVCAR-3 ovarian it was 80.9 µM.
For the molecule `O=Nc1c(O)ccc2ccccc12`, the GI50 was 3.1 µM in the assay on CAKI-1 renal; 3.41 µM with HT29 colon; 1.92 µM with M14 melanoma; 2.42 µM in the assay with HL-60(TB) leukemia; 4.9 µM in the assay on A549 NSCLC; 10.2 µM with 786-0 renal. In addition, the GI50 in the assay on SN12C renal is 1.75 µM; with OVCAR-3 ovarian, 2.55 µM. Further, the TGI amounted to 12.1 µM in the assay on CAKI-1 renal; 10.7 µM in the assay on HT29 colon; 3.84 µM with M14 melanoma; 6.04 µM with HL-60(TB) leukemia; 17.5 µM in the assay with A549 NSCLC; 22 µM with 786-0 renal. In addition, the figures for the TGI in the assay with SN12C renal and in the assay on OVCAR-3 ovarian were 3.4 µM and 9.15 µM, respectively.
